Source: ChEMBL document CHEMBL4616721, “Nitrogen-Walk Approach to Explore Bioisosteric Replacements in a Series of Potent A2B Adenosine Receptor Antagonists” (J Med Chem, 2020)

How the values were obtained:
[1] = molecular target: T1, Adenosine receptor A3 (Homo sapiens) (UniProt P0DMS8); assay: Displacement [3H]NECA from adenosine A3 receptor in human HeLa cell membranes at 1 uM incubated for 180 mins by scintillation counting method relative to control
T1 sequence (whole entry): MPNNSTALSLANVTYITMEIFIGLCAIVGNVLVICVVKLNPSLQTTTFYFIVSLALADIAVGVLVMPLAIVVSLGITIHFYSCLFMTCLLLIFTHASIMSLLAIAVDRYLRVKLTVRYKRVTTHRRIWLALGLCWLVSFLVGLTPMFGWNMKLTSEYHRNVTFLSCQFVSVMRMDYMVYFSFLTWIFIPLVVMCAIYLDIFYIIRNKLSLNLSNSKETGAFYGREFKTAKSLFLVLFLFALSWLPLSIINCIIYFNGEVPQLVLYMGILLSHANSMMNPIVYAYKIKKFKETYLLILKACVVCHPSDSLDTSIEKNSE

CYP2D6 [2] = molecular target: T2, CYP2D6 (Homo sapiens, UniProt P10635); assay: Inhibition of CYP2D6 (unknown origin) expressed in insect cell microsomes at 10 uM using dibenzylfluorescein substrate by fluorescence based assay relative to control; assay type: ADME; settings: insect cell microsomes expressing CYP2D6, probe dibenzylfluorescein
T2 sequence (P10635 whole entry): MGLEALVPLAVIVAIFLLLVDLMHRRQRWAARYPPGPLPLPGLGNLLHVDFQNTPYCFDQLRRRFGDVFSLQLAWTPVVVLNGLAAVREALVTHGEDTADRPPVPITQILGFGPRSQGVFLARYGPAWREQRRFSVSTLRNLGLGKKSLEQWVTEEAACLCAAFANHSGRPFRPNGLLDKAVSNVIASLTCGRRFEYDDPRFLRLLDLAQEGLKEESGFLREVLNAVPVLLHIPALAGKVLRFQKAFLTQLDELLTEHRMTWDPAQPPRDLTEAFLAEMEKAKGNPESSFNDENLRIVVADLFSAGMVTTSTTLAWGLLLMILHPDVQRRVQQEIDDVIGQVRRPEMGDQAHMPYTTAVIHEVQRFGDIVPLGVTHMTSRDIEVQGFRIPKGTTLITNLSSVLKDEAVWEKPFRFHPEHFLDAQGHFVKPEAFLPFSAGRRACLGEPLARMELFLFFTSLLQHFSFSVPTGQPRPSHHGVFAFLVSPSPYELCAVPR

Adenosine receptor A2b = molecular target: T3, Adenosine receptor A2b (Homo sapiens, UniProt P29275); assay: Displacement [3H]DPCPX from human adenosine A2B receptor expressed in HEK293 cell membranes incubated for 60 mins by scintillation counting method
T3 sequence (P29275 whole entry): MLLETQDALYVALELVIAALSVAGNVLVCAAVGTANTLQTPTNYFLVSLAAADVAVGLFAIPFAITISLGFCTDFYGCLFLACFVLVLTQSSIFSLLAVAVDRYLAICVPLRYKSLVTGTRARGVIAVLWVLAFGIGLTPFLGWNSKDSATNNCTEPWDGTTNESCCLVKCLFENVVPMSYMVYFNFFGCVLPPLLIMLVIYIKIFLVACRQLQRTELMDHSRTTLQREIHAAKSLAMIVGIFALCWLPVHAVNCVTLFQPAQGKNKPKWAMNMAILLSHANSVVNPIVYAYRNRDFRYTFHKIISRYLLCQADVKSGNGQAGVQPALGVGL

[3] = molecular target: T4, Adenosine receptor A1 (Homo sapiens) (UniProt P30542); assay: Displacement [3H]DPCPX from human adenosine A1 receptor expressed in CHO cell membranes at 1 uM incubated for 60 mins by scintillation counting method relative to control
T4 sequence (whole entry): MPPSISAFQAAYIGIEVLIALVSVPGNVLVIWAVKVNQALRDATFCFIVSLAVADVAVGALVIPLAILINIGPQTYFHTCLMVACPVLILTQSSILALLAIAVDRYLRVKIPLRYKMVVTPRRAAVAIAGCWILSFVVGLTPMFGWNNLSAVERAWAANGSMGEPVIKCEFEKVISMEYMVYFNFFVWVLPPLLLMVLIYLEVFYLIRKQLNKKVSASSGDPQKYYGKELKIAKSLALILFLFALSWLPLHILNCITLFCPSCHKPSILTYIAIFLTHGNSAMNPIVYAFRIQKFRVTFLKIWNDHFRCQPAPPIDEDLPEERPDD

CYP2D6 [4] = molecular target: T2, CYP2D6; assay: Inhibition of CYP2D6 (unknown origin) expressed in insect cell microsomes at 1 uM using dibenzylfluorescein substrate by fluorescence based assay relative to control; assay type: ADME; settings: insect cell microsomes expressing CYP2D6, probe dibenzylfluorescein
Cytochrome P450 3A4 = Cytochrome P450 3A4 (Homo sapiens, UniProt P08684); assay: Inhibition of CYP3A4 (unknown origin) expressed in insect cell microsomes using dibenzylfluorescein substrate by fluorescence based assay; assay type: ADME
Sequence of Cytochrome P450 3A4 (P08684 whole entry): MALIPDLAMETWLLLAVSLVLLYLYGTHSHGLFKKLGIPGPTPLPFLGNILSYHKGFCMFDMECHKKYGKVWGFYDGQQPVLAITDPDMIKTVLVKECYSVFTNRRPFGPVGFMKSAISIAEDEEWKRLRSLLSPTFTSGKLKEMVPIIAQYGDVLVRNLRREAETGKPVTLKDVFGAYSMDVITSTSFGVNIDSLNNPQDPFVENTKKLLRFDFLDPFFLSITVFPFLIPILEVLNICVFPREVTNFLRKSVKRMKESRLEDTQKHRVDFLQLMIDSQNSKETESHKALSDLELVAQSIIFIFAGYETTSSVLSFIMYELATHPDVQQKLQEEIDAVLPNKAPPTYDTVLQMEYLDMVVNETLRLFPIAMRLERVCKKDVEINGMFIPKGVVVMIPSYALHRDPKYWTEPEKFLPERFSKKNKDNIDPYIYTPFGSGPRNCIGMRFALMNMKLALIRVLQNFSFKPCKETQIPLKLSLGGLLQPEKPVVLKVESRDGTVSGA

Adenosine receptor A2a [5] = molecular target: T5, Adenosine receptor A2a (Homo sapiens, UniProt P29274); assay: Displacement [3H]ZM241385 from adenosine A2A receptor in human HeLa cell membranes at 1 uM incubated for 30 mins by scintillation counting method relative to control
T5 sequence (P29274 whole entry): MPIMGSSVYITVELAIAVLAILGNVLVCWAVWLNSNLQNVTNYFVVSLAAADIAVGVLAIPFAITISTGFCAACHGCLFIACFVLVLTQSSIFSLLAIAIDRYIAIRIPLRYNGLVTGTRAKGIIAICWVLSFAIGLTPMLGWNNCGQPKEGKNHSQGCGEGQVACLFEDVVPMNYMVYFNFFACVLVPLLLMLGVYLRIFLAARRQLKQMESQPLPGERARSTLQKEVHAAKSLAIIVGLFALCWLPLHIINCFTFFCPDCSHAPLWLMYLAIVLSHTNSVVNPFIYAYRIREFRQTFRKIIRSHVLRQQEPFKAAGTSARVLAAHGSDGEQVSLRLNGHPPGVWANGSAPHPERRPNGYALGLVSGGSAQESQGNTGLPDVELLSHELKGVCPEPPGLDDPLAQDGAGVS

[6] = Solubility in pH 7 PBS incubated for 4 hrs by nephelometry; assay type: physicochemical
[7] = Drug metabolism in human liver microsomes after 60 mins in presence of NADP,glucose-6-phosphate and glucose-6-phosphate dehydrogenase by UPLC-MS/MS analysis; assay type: ADME, Microsome; settings: read-out: Drug metabolism
Adenosine receptor A2a [8] = molecular target: T5, Adenosine receptor A2a; assay: Displacement [3H]ZM241385 from adenosine A2A receptor in human HeLa cell membranes incubated for 30 mins by scintillation counting method
Adenosine receptor A1 = molecular target: T6, Adenosine receptor A1 (Homo sapiens, UniProt P30542); assay: Displacement [3H]DPCPX from human adenosine A1 receptor expressed in CHO cell membranes incubated for 60 mins by scintillation counting method
T6 sequence (P30542 whole entry): T4 sequence (whole entry)

Adenosine receptor A3 = molecular target: T7, Adenosine receptor A3 (Homo sapiens, UniProt P0DMS8); assay: Displacement [3H]NECA from adenosine A3 receptor in human HeLa cell membranes incubated for 180 mins by scintillation counting method
T7 sequence (P0DMS8 whole entry): T1 sequence (whole entry)

CCOC(=O)C1=C(C)Nc2nc3ccccc3n2C1c1cnoc1 (racemic)
inhibition [1]: 13% | inhibition at 10 µM (CYP2D6 [2]): 37% | Ki (Adenosine receptor A2b): 23.4 nM | inhibition [3]: 21% | inhibition at 1 µM (CYP2D6 [4]): 6% | IC50 (Cytochrome P450 3A4): 4920 nM | inhibition (Adenosine receptor A2a [5]): 30%

CC1=C(C(=O)OC(C)C)C(c2cocn2)n2c(nc3ccccc32)N1 (racemic)
inhibition [1]: 16% | inhibition at 10 µM (CYP2D6 [2]): 43% | Ki (Adenosine receptor A2b): 43.4 nM | inhibition [3]: 7% | inhibition at 1 µM (CYP2D6 [4]): 23% | IC50 (Cytochrome P450 3A4): 5920 nM | inhibition (Adenosine receptor A2a [5]): 19%

CCOC(=O)C1=C(C)Nc2nc3ccccc3n2C1c1cocn1 (racemic)
inhibition at 10 µM (CYP2D6 [2]): 19% | solubility kinetic at 4 h [6]: > 20 µM | inhibition at 1 µM (CYP2D6 [4]): 13% | IC50 (Cytochrome P450 3A4): 6410 nM | metabolised at 1 h [7]: 5.62%

CC1=C(C(=O)OC(C)C)C(c2ccoc2)n2c(nc3ccccc32)N1 (racemic)
inhibition at 10 µM (CYP2D6 [2]): 31% | inhibition at 1 µM (CYP2D6 [4]): 8% | IC50 (Cytochrome P450 3A4): 2680 nM | inhibition (Adenosine receptor A2a [5]): 22%

CCOC(=O)C1=C(C)Nc2nc3ccccc3n2C1c1ncco1 (racemic)
inhibition [1]: 10% | Ki (Adenosine receptor A2a [8]): 2 nM | Ki (Adenosine receptor A2b): 769 nM | inhibition [3]: 8%

CC1=C(C(=O)OC(C)C)C(c2ccco2)n2c(nc3ccccc32)N1 (racemic)
inhibition at 10 µM (CYP2D6 [2]): 35% | inhibition at 1 µM (CYP2D6 [4]): 5% | IC50 (Cytochrome P450 3A4): 2900 nM | inhibition (Adenosine receptor A2a [5]): 25%

CC1=C(C(=O)OC(C)C)C(c2cnco2)n2c(nc3ccccc32)N1 (racemic)
inhibition [1]: 39% | Ki (Adenosine receptor A1): 301 nM | inhibition (Adenosine receptor A2a [5]): 38%

CCOC(=O)C1=C(C)Nc2nc3ccccc3n2C1c1cn[nH]c1 (racemic)
inhibition [1]: 1% | Ki (Adenosine receptor A2b): 92.6 nM | Ki (Adenosine receptor A1): 14.8 nM | inhibition (Adenosine receptor A2a [5]): 28%

CCOC(=O)C1=C(C)Nc2nc3ccccc3n2C1c1ncc[nH]1 (racemic)
inhibition [1]: 1% | Ki (Adenosine receptor A2a [8]): 5 nM | inhibition at 10 µM (CYP2D6 [2]): 18% | Ki (Adenosine receptor A2b): 402 nM | inhibition [3]: 6% | inhibition at 1 µM (CYP2D6 [4]): 8% | IC50 (Cytochrome P450 3A4): 4540 nM

CC1=C(C(=O)OC(C)C)C(c2cnsc2)n2c(nc3ccccc32)N1 (racemic)
inhibition [1]: 14% | Ki (Adenosine receptor A2b): 278 nM | inhibition [3]: 9% | inhibition (Adenosine receptor A2a [5]): 11%

CCOC(=O)C1=C(C)Nc2nc3ccccc3n2C1c1ccns1 (racemic)
inhibition [1]: 8% | Ki (Adenosine receptor A2b): 98.7 nM | Ki (Adenosine receptor A1): 20.2 nM | inhibition (Adenosine receptor A2a [5]): 7%

CC1=C(C(=O)OC(C)C)C(c2ccc[nH]2)n2c(nc3ccccc32)N1 (racemic)
inhibition [1]: 1% | Ki (Adenosine receptor A2b): 31.3 nM | inhibition [3]: 38% | inhibition (Adenosine receptor A2a [5]): 19%

CCOC(=O)C1=C(C)Nc2nc3ccccc3n2C1c1nccs1 (racemic)
inhibition [1]: 1% | Ki (Adenosine receptor A2a [8]): 3 nM | Ki (Adenosine receptor A2b): 388 nM | inhibition [3]: 3%

CC1=C(C(=O)OC(C)C)C(c2cc[nH]n2)n2c(nc3ccccc32)N1 (racemic)
inhibition [1]: 2% | Ki (Adenosine receptor A2b): 1100 nM | inhibition [3]: 1% | inhibition (Adenosine receptor A2a [5]): 7%

CC1=C(C(=O)OC(C)C)C(c2ncco2)n2c(nc3ccccc32)N1 (racemic)
inhibition [1]: 10% | Ki (Adenosine receptor A2a [8]): 1 nM | Ki (Adenosine receptor A2b): 708 nM | inhibition [3]: 1%

CCOC(=O)C1=C(C)Nc2nc3ccccc3n2C1c1cc[nH]n1 (racemic)
inhibition [1]: 1% | Ki (Adenosine receptor A2b): 707 nM | inhibition [3]: 8% | inhibition (Adenosine receptor A2a [5]): 11%

CC1=C(C(=O)OC(C)C)C(c2ccno2)n2c(nc3ccccc32)N1 (racemic)
inhibition [1]: 1% | Ki (Adenosine receptor A2b): 1030 nM | inhibition [3]: 37% | inhibition (Adenosine receptor A2a [5]): 7%

CCOC(=O)C1=C(C)Nc2nc3ccccc3n2C1c1cnco1 (racemic)
Ki (Adenosine receptor A2a [8]): 282 nM | Ki (Adenosine receptor A2b): 508 nM | Ki (Adenosine receptor A1): 233 nM | Ki (Adenosine receptor A3): 418 nM

CC1=C(C(=O)OC(C)C)C(c2cn[nH]c2)n2c(nc3ccccc32)N1 (racemic)
inhibition [1]: 6% | Ki (Adenosine receptor A2b): 340 nM | Ki (Adenosine receptor A1): 8.3 nM | inhibition (Adenosine receptor A2a [5]): 40%

CCOC(=O)C1=C(C)Nc2nc3ccccc3n2C1c1ccc[nH]1 (racemic)
inhibition [1]: 9% | Ki (Adenosine receptor A2b): 49.6 nM | inhibition [3]: 45% | inhibition (Adenosine receptor A2a [5]): 2%
